Results as given in publication PMC11845477, “Exploring the principles behind antibiotics with limited resistance” (Nature Communications, 2025).
“And” between values parts separate entries of the source, which are not always exact repeats. Identical values can stand only once. Like-named read-outs stand apart in the source and are kept apart here. Where a SMILES comes first, the peptide text is derived from it. Bridges are numbered along the chain shown (N, C = ends). [ ]: non-standard residue; d: D form. The star is where a group is joined. X1 = NC[C@@H](CC(=O)*)c1cccc(Cl)c1; Dab = NCC[C@H](N)C(=O)O; Dap = NC[C@H](N)C(=O)O

How the values were obtained:
[1] = system: polymyxin B-resistant lines of E. coli (EC-SEN); experiment: Cross-resistance of polymyxin B resistant evolved lines, relative MIC; format: cell-based, Escherichia coli
Procedure: 3 independently evolved lines from each investigated species were studied, including E. coli (EC), K. pneumoniae (KP), A. baumannii (AB), and P. aeruginosa (PA). […] The distances between antibiotics were computed using the Euclidean distance method based on the log-transformed MIC values. The clustering was performed using the complete linkage method. […] For detailed information on antibiotic and bacterial strain abbreviations, see Supplementary Data 1. Source data are provided as a Source Data file.
A robotic liquid handling system was used to automatically prepare a 11 to 16-step serial dilution in 384-well microtiter plates (Greiner). A final concentration of 5 × 10^5 bacterial cells per mL were inoculated into each well containing 60 µL MHB medium. Bacterial cultures were incubated at 37 °C with continuous shaking (Infors shaker, 900 rpm with 3 mm throw) for 18 hours (2 replicates from each). Cell growth was monitored by measuring the optical density (OD600 values, using Biotek Synergy microplate reader). MIC was defined as the antibiotic concentration of complete growth inhibition (i.e., OD600 < 0.05). Relative MIC was calculated as follows:1 relativeMIC=MICevolved/MICancestor […]
Each data point represents a distinct
Boxplots show the median, first and third quartiles, with whiskers showing the 5th and 95th percentiles. P values were calculated using Dunn's post-hoc test with Benjamini-Hochberg correction (NS indicates p > 0.05, ** / **** indicates p < 0.01 […]
For detailed information on antibiotic and bacterial strain abbreviations, see Supplementary Table 1. Source data are provided as a Source […]
(1 picture or pasted object on this page, not shown here)

K. pneumoniae = format: cell-based, Klebsiella pneumoniae
Procedure: (§1) We employed image analysis to quantify bacterial survival under fixed antibiotic concentrations (10xMIC for 4 hours) on E. coli, A. baumannii, K. pneumoniae, and P. aeruginosa. […] Survival rate was quantified by calculating the ratio of the viable cells after antibiotic treatment and the total initial viable cell count.
(§2) Fig. 9 Killing kinetics of the studied antibiotics. a Bacterial survival rate in response to toxic antibiotic exposure. […] The bars indicate the survival rate (log10) compared to the untreated initial viable cell count (see “Methods”). Data are presented as mean values of 5 biological replicates ± SEM. The antibiotic group differentiation is denoted by color. […] Survival was estimated by measuring cell viability (colony-forming units/ml) of 2 biologically independent strains following a 4-hour exposure to different concentrations of 16 antibiotics on E. coli ATCC25922 (for further details, see “Methods”). The antibiotic concentration that kills 99.9% of the E. coli population is indicated as a vertical dotted line (see Supplementary Data 5). Error bars represent standard error calculated from the colony counts by Poisson’s model. A Hill function was fitted to the dose-response data from two biological replicates, producing sigmoidal curves (Supplementary Data 5). The Hill coefficient reflects how steeply the survival rate decreases in response to increasing antibiotic concentration ([…]). […] X-axis label colors indicate mode of action groups. For detailed information on antibiotic and bacterial species, see Supplementary Data 1. Source data are provided as a Source Data file.
(§3) In this current study, the killing kinetics of each antibiotic was measured according to a previously established experimental protocol[62] with minor modifications. During this assay, the bacterial cultures were exposed to antibiotics in 96-well assay plates and their viability after 4 hours of exposure was quantified by two methods: i) microplating and colony counting or ii) fluorescent staining of cells and counting of the fluorescent units.
(§4) Specifically, these experiments were performed in the following steps: (1) Preparation of bacterial stocks. Single colonies from each strain were isolated and grown overnight in MHB medium at 37 °C, 160 rpm. In case of the fluorescently tagged E. coli strains, the medium was supplemented with 10 μg/mL chloramphenicol, to maintain the pZS2R plasmid. Overnight cultures were diluted 1:5000 and grown to an optical density at 600 nm (OD600) of 0.25. These cultures were concentrated by centrifugation and small aliquots of 50 μL containing ~2.2 × 10^9 cells were frozen in glycerol (stored at −80 °C). (2) Preparing assay plates with antibiotics. 96-well plates were filled with 235 μL MHB and supplemented with antibiotics using an automated digital dispenser (D300e, Tecan). In the case of SCH79797, we used minimal media. […] For testing the clearance efficacy of each antibiotic at a single lethal dose, the 10x of the MIC for each antibiotic-strain pair were prepared in at least three replicates. (3) Antibiotic exposure. During the dose response assay, frozen cultures of the E. coli strains expressing YFP and mCherry were thawed and mixed at a 1:1 ratio, diluted 1:1000 in 30 mL MHB and incubated for 45 min at 37 °C and 160 rpm. During the single-dose assay, the frozen cultures of experimental strains (E. coli, K. pneumoniae, A. baumannii) were also thawed and diluted 1:1000 in 30 mL MHB and incubated at 37 °C to reach an OD of 0.25 and 160 rpm. Following this incubation phase, these bacterial cultures were then aliquoted into the 96-well deep-well antibiotic plates (15 μL culture; total volume of 250 μL) at an inoculum density of about 10^7 CFU.

A. baumannii = experiment: Bacterial survival at 10xMIC for 4 hours; format: cell-based, Acinetobacter baumannii; details: Acinetobacter baumannii, survival at 10xMIC for 4 hours, single replicates, (fig 9a source data)
Procedure: as §1, §2, §3, §4

P. aeruginosa = format: cell-based, Pseudomonas aeruginosa
Procedure: as §1, §2, §3, §4

E. coli = format: cell-based, Escherichia coli
Procedure: as §1, §2, §3, §4

[2] = EC-SEN, polymyxin B-resistant evolved line 4, MIC evolved/MIC ancestor
[3] = EC-SEN, polymyxin B-resistant evolved line 6, MIC evolved/MIC ancestor
[4] = EC-SEN, polymyxin B-resistant evolved line 10, MIC evolved/MIC ancestor
[5] = polymyxin B-resistant evolved line 4 of EC-SEN, MIC relative to ancestor
[6] = polymyxin B-resistant evolved line 6 of EC-SEN, MIC relative to ancestor
[7] = polymyxin B-resistant evolved line 10 of EC-SEN, MIC relative to ancestor

CC(C)C[C@@H]1NC(=O)[C@@H](Cc2ccccc2)NC(=O)[C@H](CCN)NC(=O)[C@@H](NC(=O)[C@H](CN)NC(=O)[C@@H](NC(=O)C[C@H](CN)c2cccc(Cl)c2)[C@@H](C)O)CCNC(=O)[C@H]([C@@H](C)O)NC(=O)[C@H](CCN)NC(=O)[C@H](CCN)NC1=O [SPR206] (X1-T[Dap][Dab][Dab][dF]L[Dab][Dab]T; lactam 3-C (inferred); N-terminus assumed)
Relative MIC [1, 2]: 32 | Relative MIC [1, 3]: 64 | Relative MIC [1, 4]: 64 | Relative MIC [1, 5]: 32 | Relative MIC [1, 6]: 64 | Relative MIC [1, 7]: 64 | Survival rate (log10) (K. pneumoniae; Klebsiella pneumoniae, survival at 10xMIC for 4 hours, single replicates, (fig 9a source data), listed as SPR): -4.671 log10 and -4.37 log10 and -3.671 log10 | Survival rate (log10) (A. baumannii; listed as SPR): -1.951 log10 and -2.839 log10 and -3.084 log10 and -1.511 log10 and -2.915 log10 | Survival rate (log10) (P. aeruginosa; Pseudomonas aeruginosa, survival at 10xMIC for 4 hours, single replicates, (fig 9a source data), listed as SPR): -6 log10 and -2.301 log10 and -2.534 log10 and -2.682 log10 | Survival rate (log10) (E. coli; Escherichia coli, survival at 10xMIC for 4 hours, single replicates, (fig 9a source data), listed as SPR): -4.747 log10 and -3.687 log10 and -3.935 log10 and -4.007 log10 and -3.902 log10

POL7306
Relative MIC [1, 2]: 1 | Relative MIC [1, 3]: 2 | Relative MIC [1, 4]: 2 | Relative MIC [1, 5]: 1 | Relative MIC [1, 6]: 2 | Relative MIC [1, 7]: 2 | Survival rate (log10) (K. pneumoniae): -3.973 log10 and -4.193 log10 | Survival rate (log10) (K. pneumoniae; Klebsiella pneumoniae, survival at 10xMIC for 4 hours, single replicates, (fig 9a source data)): -4.671 log10 | Survival rate (log10) (A. baumannii; listed as POL): -3.645 log10 and -4.987 log10 and -2.756 log10 and -3.625 log10 and -3.539 log10 | Survival rate (log10) (P. aeruginosa): -6 log10 | Survival rate (log10) (P. aeruginosa; Pseudomonas aeruginosa, survival at 10xMIC for 4 hours, single replicates, (fig 9a source data), listed as POL): -2.602 log10 and -2.902 log10 and -2.057 log10 | Survival rate (log10) (E. coli): -4.747 log10 | Survival rate (log10) (E. coli; Escherichia coli, survival at 10xMIC for 4 hours, single replicates, (fig 9a source data), listed as POL): -4.446 log10 and -4.3509 log10

colistin
Relative MIC [1, 3]: 32 | Relative MIC [1, 4]: 32 | Relative MIC [1, 6]: 32 | Relative MIC [1, 7]: 32 | Survival rate (log10) (K. pneumoniae; Klebsiella pneumoniae, survival at 10xMIC for 4 hours, single replicates, (fig 9a source data), listed as COL): -3.893 log10 and -3.973 log10 and -4.193 log10 and -4.37 log10 | Survival rate (log10) (A. baumannii; listed as COL): -3.481 log10 and -3.59 log10 and -3.495 log10 and -4.987 log10 and -3.369 log10 | bacterial survival after toxic antibiotic exposure (P. aeruginosa; 10xMIC for 4 hours): eliminate the full bacterial population | Survival rate (log10) (P. aeruginosa; Pseudomonas aeruginosa, survival at 10xMIC for 4 hours, single replicates, (fig 9a source data)): -6 log10 | Survival rate (log10) (E. coli; Escherichia coli, survival at 10xMIC for 4 hours, single replicates, (fig 9a source data), listed as COL): -4.747 log10 and -3.794 log10
